Reference: US12458608B2 (NACUITY PHARMACEUTICALS, INC., priority 2019, dated 2025)
“Also recorded” adds a separate entry of the source.

What was measured:
[1] = test system: Light melanin human skin explant; experiment: Human skin explants exposed to UVA radiation, GSSG/thiol analysed by LCMS; format: cell-based; details: for Levels of thiol production in human skin exposed to UVA-induced oxidative skin damage: FIG. 3; for Dermal GSSG / levels of GSSG production: topical 100 mM in 10% DMSO/water 30 min prior to UVA (24 J/cm2), tissue harvested 24 hours after UVA, single donor, n=6
Method: Effects of NPI-001 (NACA 10 mM) and diNACA (10 mM) on human skin explants upon radiation (UVA) exposure.
Light melanin human skin explant (single donor; n=6) in transwells were exposed to UVA radiation (24 J/cm2) with and without topical application of the NPI-001 and diNACA at a final concentration of 100 mM (NPI-001 16.2 mg/ml; diNACA 32.2 mg/ml) dissolved or suspended in 10% DMSO/water and applied at ˜18 μl/cm2(˜6 μl/0.33 cm2) 30 min prior to UVA exposure (24 J/cm2 exposure). 24 hours following UVA exposure tissue was harvested, cut in half and heat separated into epidermal and dermal layers; weighed; immediate submersion of the dermal and epidermal layers into a derivatization solution, analyzed by LCMS.

[2] = molecular target: glutamate cysteine ligase (GCL, EC 6.3.2.2); details: nonallosteric competitive inhibition; cited from earlier work
[3] = cited from earlier work
[4] = test system: Reconstructed human epithelium (RHE) with melanocytes (MelanoDerm); experiment: Reconstructed human epithelium (RHE) model to assess decrease of pigmentation in skin (photographs, melanin extraction); format: cell-based; details: for RHE pigmentation: MelanoDerm RHE cultured 14 days, basolateral treatment every other day, NACA 10 mM, diNACA 10 mM, 2% GSSG, vs relative day untreated control
Method: Reconstructed human epithelium (RHE) model to assess the ability of NPI-001 and NPI2 to decrease pigmentation in skin:
Reconstructed human epithelium (RHE) with melanocytes were obtained from MatTek (MelanoDerm™ cat #MEL-300B). RHE were cultured for 14 days with reapplication of media with basolateral treatment every other day. Day 0, Day 7 and Day 14 RHE were photographed and frozen for melanin extraction.
After harvest of RHE on Day 14, cultures were submerged for 30 min in 1% sodium bicarbonate and transferred to Eppendorf tubes with 500 μl Solvable™ reagent for overnight incubation at 60° C. A synthetic melanin standard curve was made in Solvable™ reagent from 0.5-0.0039 mg/ml in half dilutions. 200 μl of extracted melanin was transferred to a 96 well plate and read at 490 nm for quantification.

CC(=O)N[C@@H](CS)C(N)=O
Levels of thiol production in human skin exposed to UVA-induced oxidative skin damage [1]: increased
Dermal GSSG / levels of GSSG production [1]: increased; also recorded: statistically significant increases

N[C@@H](CCC(=O)N[C@@H](CS)C(=O)NCC(=O)O)C(=O)O [GSH, c-L-glutamyl-L-cysteinyl-glycine]
Ki [2]: 2300 µM

CC(=O)N[C@@H](CS)C(=O)O [NAC, N-acetylcysteine]
NAC detectable after administration ([3]; 10-12 hours after administration): no NAC is detectable
Plasma half-life ([3]; humans): 2.5 h
Absorption and clearance ([3]; oral dose of 600 mg in humans): rapidly absorbed and then rapidly cleared

CC(=O)N[C@@H](CSSC[C@H](NC(C)=O)C(N)=O)C(N)=O [diNACA, (2R,2R′)-3,3′-disulfanediyl bis(2-acetamidopropanamide)]
Levels of thiol production in human skin exposed to UVA-induced oxidative skin damage [1]: increased
Dermal GSSG / levels of GSSG production [1]: increased; also recorded: statistically significant increases
RHE pigmentation [4]: decreased; also recorded: significantly inhibited
RHE pigmentation ([4]; listed as NPI2): decreased
Melanin extracted from RHE ([4]; after 0, 7 and 14 days with treatment, read at 490 nm, vs untreated control at relative day of harvest): decreased
